Results published in article PMC3086806, “Mining a Cathepsin Inhibitor Library for New Antiparasitic Drug Leads” (PLoS Neglected Tropical Diseases, 2011).

Columns and labels:
[1] = molecular target: T1, TbCatB (Trypanosoma brucei, UniProt Q6R7Z5); assay: TbCatB protease inhibition assay (Z-Phe-Arg-AMC); assay type: biochemical
T1 construct: made in house
T1 sequence (Q6R7Z5 23-340): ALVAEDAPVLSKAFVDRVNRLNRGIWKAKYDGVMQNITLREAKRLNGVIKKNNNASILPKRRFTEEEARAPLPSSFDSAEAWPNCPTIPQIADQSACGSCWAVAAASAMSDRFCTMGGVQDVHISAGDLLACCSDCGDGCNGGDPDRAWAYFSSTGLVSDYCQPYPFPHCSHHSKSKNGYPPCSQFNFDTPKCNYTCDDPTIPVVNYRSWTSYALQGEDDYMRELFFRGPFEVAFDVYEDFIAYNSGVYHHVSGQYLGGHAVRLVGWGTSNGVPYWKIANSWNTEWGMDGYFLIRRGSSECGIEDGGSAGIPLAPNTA
Protocol: (§1) Recombinant cruzain, rhodesain, TbCatB, falcipain-2 and falcipain-3 were expressed as described previously, [39], [40], [41], [42]. Inhibitor stock solutions were prepared in DMSO and screened at 0.1 µM for cruzain and rhodesain, 1 µM for TbCatB and 50 nM for falcipain-3 (0.5% DMSO in assay). […] Protease inhibition assays for cruzain and rhodesain were carried out in 96 well plate format as described previously. Cruzain (4 nM), rhodesain (4 nM) or TbCatB (258 nM) was incubated with test compound in 100 mM sodium acetate, pH 5.5, containing 5 mM DTT and 0.01% Triton X-100 (buffer A), for 5 min at room temperature (the higher concentration of TbCatB was required due to its lower intrinsic activity against the fluorogenic substrate). Then buffer A containing Z-Phe-Arg-AMC (Bachem) was added to enzyme-compound mixture to give 10 µM substrate in a final assay volume of 200 µL. The rate of free AMC release was measured at excitation and emission wavelengths of 355 and 460 nm, respectively, with a microtiter plate spectrofluorimeter (SpectraMax M5, Molecular Devices) for 3 min. Percentage inhibition of test compound was calculated relative to the DMSO control (0% inhibition control). IC50 values were determined with Prism 4 software (GraphPad, San Diego, CA) using sigmoidal dose-response variable slope model.

[2] = molecular target: human cathepsin B; parameters: method as in data provided by Celera Genomics; settings: historical data; ref data provided by Celera Genomics; read-out: Ki catB; cited from earlier work
[3] = Toxicity toward host BESM cells in the T. cruzi assay; assay type: cell-based, bovine; settings: bovine; highest assay concentration 20 µM
Protocol: (§2) The growth inhibition assay for the intracellular T. cruzi was conducted in 96-well plate format as described previously. Briefly, bovine embryo skeletal muscle (BESM) cells (2×10^3/well), seeded overnight, were infected with CA-I/72 T. cruzi trypomastigotes (2×10^3/well). Sixteen hours post-infection, test compounds (serial dilution concentrations starting from 20 µM) were added and assay plates were incubated for an additional 72 hours at 37°C with 5% CO2. Cells were then washed once in PBS, fixed with 4% paraformaldehyde and stained with DNA fluorescent dye DAPI (4′ 6-diamidino-2-phenylindole). The assay plates were then imaged in the IN Cell Analyzer 2000 (GE Healthcare) with the excitation and emission filters set of 350 nm and 460 nm, respectively, to detect DAPI signals. The feature extraction module in IN Cell Developer Toolbox 1.7 software was used to count host nuclei and parasite kinetoplasts by size difference.
All falcipain-3 inhibitors were also tested against falcipain-2. […] The entire library was examined for cytotoxicity to a mammalian cell line (Jurkat) at a concentration of 10 µM, and those compounds studied in the T. cruzi assay were also evaluated for toxicity (at 20 µM) toward the host BESM cells used in that assay. […]

[4] = Jurkat cell cytotoxicity assay; assay type: cell-based; settings: human, Jurkat cells (clone E6-1), read-out: Cytotoxicity (% inhibition at 10 µM) Jurkat cells
Protocol: Jurkat cells (clone E6-1) were grown in complete RPMI-1640 medium containing 10% FBS, 50 U/mL penicillin and 50 µg/mL streptomycin (Invitrogen) at 37°C under a humidified atmosphere and 5% CO2. For cytotoxicity testing, cells were diluted to 1×10^5 per ml in complete RPMI-1640 medium. Test compound stocks were prepared in 100% DMSO and screened at 10 µM against cells (1×10^4 cells per well) in sterile Greiner 96-well flat white opaque culture plates (0.5% final DMSO concentration). The 0% inhibition control wells contained 0.5% DMSO while 100% inhibition control wells contained 40 µM staurosporine. After compound addition, plates were incubated for 40 hr at 37°C. At the end of the incubation period, 50 µL of CellTiter-Glo™ reagent (Promega Inc., Madison, WI, USA) was added to each well and plates were placed on an orbital shaker at room temperature for 2 min to induce lysis. After a further 10 min incubation without shaking to stabilize the signal, the ATP-bioluminescence of each well was determined using an Analyst HT plate reader (Molecular Devices, Sunnyvale, CA, USA). Calculations of percentage inhibition and IC50 were performed similar to those in the T. brucei brucei assay.

[5] = molecular target: T2, rhodesain (Trypanosoma brucei rhodesiense, UniProt Q95PM0); assay: Rhodesain protease inhibition assay (Z-Phe-Arg-AMC); assay type: biochemical
T2 construct: made in house
Protocol: as §1

[6] = tested on: T. brucei brucei clone 427-221a bloodstream forms; assay: T. brucei brucei growth inhibition assay; assay type: cell-based; settings: Trypanosoma brucei; 40 hours
Protocol: The growth inhibition assay for T. brucei brucei was conducted as described previously. Bloodstream forms of the monomorphic T. brucei brucei clone 427-221a were grown in complete HMI-9 medium containing 10% FBS, 10% Serum Plus medium (Sigma Inc. St. Louis Mo. USA), 50 U/mL penicillin and 50 µg/mL streptomycin (Invitrogen) at 37°C under a humidified atmosphere and 5% CO2. […] 5 µL of each dilution was added to 95 µL of diluted parasites (1×10^4 cells per well) in sterile Greiner 96-well flat white opaque culture plates such that the final DMSO concentration was 0.5%. The 0% inhibition control wells contained 0.5% DMSO while 100% inhibition control wells contained 50 µM thimerosal (Sigma). After compound addition, plates were incubated for 40 hours at 37°C. At the end of the incubation period, 50 µL of CellTiter-Glo™ reagent (Promega Inc., Madison, WI, USA) was added to each well and plates were placed on an orbital shaker at room temperature for 2 min to induce lysis. After an additional 10 min incubation without shaking to stabilize the signal, the ATP-bioluminescence of each well was determined using an Analyst HT plate reader (Molecular Devices, Sunnyvale, CA, USA). Raw values were converted to log10 and percentage inhibition calculated relative to the controls. IC50 curve fittings were performed with Prism 4 software as above.

[7] = molecular target: human cathepsin L; parameters: method as in data provided by Celera Genomics; settings: historical data; ref data provided by Celera Genomics; read-out: Ki catL; cited from earlier work
[8] = tested on: intracellular T. cruzi (CA-I/72) in BESM cells; assay: T. cruzi amastigote growth inhibition assay; assay type: cell-based; settings: Trypanosoma cruzi; infected BESM cells, 72 hours
Protocol: as §2

[9] = molecular target: T3, cruzain (Trypanosoma cruzi, UniProt P25779); assay: Cruzain protease inhibition assay (Z-Phe-Arg-AMC); assay type: biochemical
T3 construct: made in house
Protocol: as §1

T3 sequence (P25779 123-467): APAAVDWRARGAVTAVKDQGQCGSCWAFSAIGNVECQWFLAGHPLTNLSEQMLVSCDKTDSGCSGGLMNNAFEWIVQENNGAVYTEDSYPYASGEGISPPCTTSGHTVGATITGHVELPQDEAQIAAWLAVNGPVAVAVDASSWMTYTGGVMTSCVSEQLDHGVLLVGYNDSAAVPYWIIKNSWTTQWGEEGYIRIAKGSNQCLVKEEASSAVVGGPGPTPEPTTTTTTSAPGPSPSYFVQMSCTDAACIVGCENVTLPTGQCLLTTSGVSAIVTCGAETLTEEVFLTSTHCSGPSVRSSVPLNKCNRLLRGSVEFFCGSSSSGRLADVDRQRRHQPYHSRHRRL
T2 sequence (Q95PM0 entry or part of it): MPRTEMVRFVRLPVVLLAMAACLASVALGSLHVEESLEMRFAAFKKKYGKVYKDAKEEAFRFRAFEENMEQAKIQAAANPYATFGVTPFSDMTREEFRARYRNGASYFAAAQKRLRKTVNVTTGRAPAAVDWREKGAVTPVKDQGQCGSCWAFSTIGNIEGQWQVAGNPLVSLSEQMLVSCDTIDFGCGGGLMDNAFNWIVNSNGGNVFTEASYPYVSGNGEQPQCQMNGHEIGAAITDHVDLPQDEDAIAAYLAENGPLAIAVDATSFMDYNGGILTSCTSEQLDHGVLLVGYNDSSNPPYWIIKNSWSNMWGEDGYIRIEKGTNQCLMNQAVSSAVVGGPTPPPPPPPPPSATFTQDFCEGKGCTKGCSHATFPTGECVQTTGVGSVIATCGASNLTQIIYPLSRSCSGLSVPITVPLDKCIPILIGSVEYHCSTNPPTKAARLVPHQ

## CCCCC(NC(=O)C(CCC)NC(c1ccc(-c2ccc(S(C)(=O)=O)cc2)cc1)C(F)(F)F)C(=O)c1nnc(-c2ccco2)o1 (stereo not drawn) [Compound 24]
[1]
  IC50: 50 nM
[2]
  Ki: 1.6 nM
[3]
  GI50 at 72 h: > 20000 nM
[4]
  cytotoxicity at 40 h, 10 µM: < 5%
[5]
  IC50: 6 nM
[6]
  GI50: 7000 nM
[7]
  Ki: 18 nM
[8]
  GI50: 7600 nM
[9]
  IC50: 10 nM
